Earlier results, collected in patent publication US8178322B2, “Method for producing an L-amino acid or a nucleic acid” (Ajinomoto Co., Inc., priority 2007, dated 2012).
In brackets after ≈: the same amount, converted by molar mass. Like-named read-outs stand apart in the source and are kept apart here.

How the values were obtained:
[1] = not given; remark: listed apart in the source

Structure (SMILES)	Solubility (20° C.) [mg/mL]	Solubility (40° C.) [mg/mL]	Solubility (20° C.) [1] [mg/mL]	Solubility (40° C.) [1] [mg/mL]
N[C@@H](CS)C(=O)O [L-cysteine]	160 (≈ 1320 mM)			
N[C@@H](CSSC[C@H](N)C(=O)O)C(=O)O [L-cystine]	0.09 (≈ 0.375 mM)			
NC(=O)CC[C@H](N)C(=O)O [L-glutamine]	37.3 (≈ 255 mM)	66 (≈ 452 mM)		
N[C@@H](Cc1c[nH]cn1)C(=O)O [L-histidine]	38 (≈ 245 mM)	58 (≈ 374 mM)		
CC[C@H](C)[C@H](N)C(=O)O [L-isoleucine]		44 (≈ 335 mM)		
CC(C)C[C@H](N)C(=O)O [L-leucine]	23.8 (≈ 181 mM)	26 (≈ 198 mM)		

Results, then the compound that gave them:

Solubility (20° C.) [mg/mL]	Solubility (40° C.) [mg/mL]	Solubility (20° C.) [1] [mg/mL]	Solubility (40° C.) [1] [mg/mL]	Structure (SMILES)
27.4 (≈ 166 mM)	38 (≈ 230 mM)			N[C@@H](Cc1ccccc1)C(=O)O [L-phenylalanine]
10.6 (≈ 51.9 mM)	14 (≈ 68.6 mM)			N[C@@H](Cc1c[nH]c2ccccc12)C(=O)O [L-tryptophan]
57.5 (≈ 491 mM)	65 (≈ 555 mM)			CC(C)[C@H](N)C(=O)O [L-valine]
		3.0 (≈ 11.2 mM)	8.3 (≈ 31.1 mM)	Nc1ncnc2c1ncn2[C@@H]1O[C@H](CO)[C@@H](O)[C@H]1O [adenosine]
		0.42 (≈ 1.48 mM)	1.05 (≈ 3.71 mM)	Nc1nc2c(ncn2[C@@H]2O[C@H](CO)[C@@H](O)[C@H]2O)c(=O)[nH]1 [guanosine]
		206 (≈ 567 mM)	260 (≈ 716 mM)	Nc1nc2c(ncn2[C@@H]2O[C@H](COP(=O)(O)O)[C@@H](O)[C@H]2O)c(=O)[nH]1 [guanylic acid, guanosine-5′-monophosphate]
		44.4 (≈ 166 mM)	83.4 (≈ 311 mM)	OC[C@H]1O[C@@H](n2cnc3c(O)ncnc32)[C@H](O)[C@@H]1O [inosine]
